# Patent US20130217722A1, “NOVEL COMPOUND USEFUL FOR THE TREATMENT OF DEGENERATIVE AND INFLAMMATORY DISEASES” (priority 2012, published 2013)
# Several values for one entry are separate records, joined by “and”; a condition that tells them apart may be missing. Equal entries are not always repeated.
# Columns and labels:
# Format in all cases: biochemical
# [1] = biological target: T1, Recombinant human JAK3 catalytic domain (Homo sapiens, UniProt P52333); assay: JAK3 inhibition assay (polyGT substrate)
# T1 construct: Recombinant human JAK3 catalytic domain (amino acids 781-1124; catalog number PV3855) was purchased from Invitrogen; purchased Invitrogen PV3855
# T1 sequence (P52333 781-1124): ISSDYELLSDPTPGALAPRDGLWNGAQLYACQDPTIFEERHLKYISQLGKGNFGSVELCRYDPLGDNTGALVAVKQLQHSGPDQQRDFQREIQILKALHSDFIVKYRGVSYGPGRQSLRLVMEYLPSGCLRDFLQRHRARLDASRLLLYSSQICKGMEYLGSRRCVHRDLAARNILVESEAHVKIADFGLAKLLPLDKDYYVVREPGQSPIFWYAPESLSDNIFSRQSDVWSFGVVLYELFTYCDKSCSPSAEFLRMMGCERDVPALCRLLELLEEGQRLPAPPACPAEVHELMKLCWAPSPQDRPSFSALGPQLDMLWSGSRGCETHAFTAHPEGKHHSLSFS
# Procedure: Recombinant human JAK3 catalytic domain (amino acids 781-1124; catalog number PV3855) was purchased from Invitrogen. 0.5 ng JAK3 protein was incubated with 2.5 μg polyGT substrate (Sigma catalog number P0275) in kinase reaction buffer (25 mM Tris pH 7.5, 0.5 mM EGTA, 10 mM MgCl2, 2.5 mM DTT, 0.5 mM Na3VO4, 5 mM b-glycerolphosphate, 0.01% Triton X-100, 1 μM non-radioactive ATP, 0.25 μCi ^33P-gamma-ATP (GE Healthcare, catalog number AH9968) final concentrations) with or without 5 μL containing test compound or vehicle (DMSO, 1% final concentration), in a total volume of 25 μL, in a polypropylene 96-well plate (Greiner, V-bottom). After 45 min at 30° C., reactions were stopped by adding 25 μL/well of 150 mM phosphoric acid. […] 40 μL/well of Microscint-20 was added, the top of the plates was sealed and readout was performed using the Topcount (Perkin Elmer). Kinase activity was calculated by subtracting counts per min (cpm) obtained in the presence of a positive control inhibitor (10 μM staurosporine) from cpm obtained in the presence of vehicle. The ability of a test compound to inhibit this activity was determined as:
# (§1) Percentage inhibition=((cpm determined for sample with test compound present−cpm determined for sample with positive control inhibitor) divided by (cpm determined in the presence of vehicle−cpm determined for sample with positive control inhibitor))*100. […]
# [2] = biological target: T2, Recombinant human TYK2 catalytic domain (Homo sapiens, UniProt P29597); assay: TYK2 inhibition assay (polyGT substrate)
# T2 construct: Recombinant human TYK2 catalytic domain (amino acids 871-1187; catalog number 08-147) was purchased from Carna biosciences; purchased Carna Biosciences 08-147
# T2 sequence (P29597 871-1187): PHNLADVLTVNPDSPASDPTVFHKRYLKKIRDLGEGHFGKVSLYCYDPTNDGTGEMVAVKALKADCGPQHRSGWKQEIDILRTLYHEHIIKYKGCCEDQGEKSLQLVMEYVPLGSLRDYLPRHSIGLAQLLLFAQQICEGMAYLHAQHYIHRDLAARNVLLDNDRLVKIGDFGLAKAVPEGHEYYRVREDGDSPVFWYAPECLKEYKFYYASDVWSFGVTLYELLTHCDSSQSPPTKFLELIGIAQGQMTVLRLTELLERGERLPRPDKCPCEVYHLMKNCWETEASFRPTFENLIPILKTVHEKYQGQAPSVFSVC
# Procedure: Recombinant human TYK2 catalytic domain (amino acids 871-1187; catalog number 08-147) was purchased from Carna biosciences. 5 ng of TYK2 was incubated with 12.5 μg polyGT substrate (Sigma catalog number P0275) in kinase reaction buffer (25 mM Hepes pH 7.2, 50 mM NaCl, 0.5 mM EDTA, 1 mM DTT, 5 mM MnCl2, 10 mM MgCl2, 0.1% Brij-35, 0.1 μM non-radioactive ATP, 0.125 μCi ^33P-gamma-ATP (GE Healthcare, catalog number AH9968) final concentrations) with or without 5 μL containing test compound or vehicle (DMSO, 1% final concentration), in a total volume of 25 μL, in a polypropylene 96-well plate (Greiner, V-bottom). After 90 min at 30° C., reactions were stopped by adding 25 μL/well of 150 mM phosphoric acid. […] 40 ^μL/well of Microscint-20 was added, the top of the plates was sealed and readout was performed using the Topcount (Perkin Elmer). Kinase activity was calculated by subtracting counts per min (cpm) obtained in the presence of a positive control inhibitor (10 μM staurosporine) from cpm obtained in the presence of vehicle. The ability of a test compound to inhibit this activity was determined as:
# as §1
# JAK2 = biological target: T3, JAK2 (Homo sapiens, UniProt O60674); assay: JAK2 Ulight-JAK1 peptide assay
# T3 construct: Recombinant human JAK2 catalytic domain (amino acids 808-1132; catalog number PV4210) was purchased from Invitrogen; purchased Invitrogen PV4210
# T3 sequence (O60674 808-1132): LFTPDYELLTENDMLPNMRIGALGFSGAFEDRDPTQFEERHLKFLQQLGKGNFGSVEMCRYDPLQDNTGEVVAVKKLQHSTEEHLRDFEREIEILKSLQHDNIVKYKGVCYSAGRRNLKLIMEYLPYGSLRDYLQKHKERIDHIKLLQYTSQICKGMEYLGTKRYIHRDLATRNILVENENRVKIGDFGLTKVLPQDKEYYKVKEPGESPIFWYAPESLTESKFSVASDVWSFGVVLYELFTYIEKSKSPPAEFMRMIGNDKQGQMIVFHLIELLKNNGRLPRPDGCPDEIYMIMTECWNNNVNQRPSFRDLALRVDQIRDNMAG
# Procedure: Recombinant human JAK2 (catalytic domain, amino acids […]; catalog number PV4210) was purchased from Invitrogen. 0.0125 mU of JAK2 was incubated with 25 nM Ulight-JAK1(tyr1023) peptide (Perkin Elmer catalog number TRF0121) in kinase reaction buffer (25 mM HEPES pH7.0, 0.01% Triton X-100, 7.5 mM MgCl2, 2 mM DTT, 7.5 μM ATP) with or without 4 μL containing test compound or vehicle (DMSO, 1% final concentration), in a total volume of 20 μL, in a white 384 Opti plate (Perkin Elmer, catalog number 6007290). After 60 min at rt, reactions were stopped by adding 20 μL/well of detection mixture (1× detection buffer (Perkin Elmer, catalog number CR97-100C), 0.5 nM Europium-anti-phosphotyrosine (PT66) (Perkin Elmer, catalog number AD0068), 10 mM EDTA). Readout is performed using the Envision with excitation at 320 nm and measuring emission at 615 nm (Perkin Elmer). Kinase activity was calculated by subtracting relative fluorescence units (RFU) obtained in the presence of a positive control inhibitor (10 μM staurosporine) from RFU obtained in the presence of vehicle. The ability of a test compound to inhibit this activity was determined as:
# Percentage inhibition=((RFU determined for sample with test compound present−RFU determined for sample with positive control inhibitor) divided by (RFU determined in the presence of vehicle−RFU determined for sample with positive control inhibitor))*100. […]
compound,measurement,setting,value
CCc1cc(C2=CCN(C(=O)CC#N)CC2)ccc1N(C)c1cc2c(cn1)ncn2C [Compound 1],JAK1 selectivity vs JAK3,[1],30 fold
same,IC50,"[1]; polyGT substrate, 1 μM ATP, individual determinations, read-out: IC50 against JAK3",0.16 µM and 0.0652 µM and 0.142 µM and 0.0669 µM and 0.0309 µM and 0.0328 µM and 0.038 µM and 0.0666 µM
same,JAK1 selectivity vs TYK2,[2],9 fold
same,JAK1 selectivity vs JAK2,JAK2,28 fold
same,IC50,"JAK2; Ulight-JAK1(tyr1023) peptide, 7.5 μM ATP, individual determinations, read-out: IC50 against JAK2",0.0615 µM and 0.108 µM and 0.101 µM and 0.0429 µM and 0.0264 µM and 0.155 µM and 0.0357 µM and 0.0305 µM
